Read-outs that look alike come from different tables or passages of the source.
Assays:
[1] = target: T1, soluble guanylate cyclase (sGC) (Homo sapiens (Human), UniProt Q02108+Q02153); experiment: sGC-HEK-cGMP assay with SNP incubation, LC/MS detection (Example 2A); type: cell-based
Summary of the method: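 HEK293 cells with endogenous sGC were pretreated 15 min at 37 °C with 0.5 mM IBMX, then exposed 10 min at 37 °C to compound (added from 0.0001–30 μM solutions) plus SNP (from 10 μM solution). After 0.1 M HCl lysis, cGMP was quantified by LC/MS against a standard curve.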

[2] = target: T1, soluble guanylate cyclase (sGC); experiment: sGC-HEK-cGMP assay, new protocol with DETA-NONOate, LC/MS detection (Example 2C); type: cell-based
[3] = HEK293 cells, 10 μM SNP, LC/MS detection, 100% = BAY 41-2272 at 10 μM, read-out: HEK assay Emax - unconstrained (%)
[4] = HEK293 cells, 10 μM SNP, LC/MS detection, top of curve fitted to 100%, read-out: HEK assay EC50 - constrained
[5] = HEK293 cells, 10 μM SNP, LC/MS detection, top of curve not fitted to 100%, read-out: HEK assay EC50 - unconstrained
[6] = read-out: Absolute EC50 (uM) - binned

T1 sequence (Q02153 whole entry): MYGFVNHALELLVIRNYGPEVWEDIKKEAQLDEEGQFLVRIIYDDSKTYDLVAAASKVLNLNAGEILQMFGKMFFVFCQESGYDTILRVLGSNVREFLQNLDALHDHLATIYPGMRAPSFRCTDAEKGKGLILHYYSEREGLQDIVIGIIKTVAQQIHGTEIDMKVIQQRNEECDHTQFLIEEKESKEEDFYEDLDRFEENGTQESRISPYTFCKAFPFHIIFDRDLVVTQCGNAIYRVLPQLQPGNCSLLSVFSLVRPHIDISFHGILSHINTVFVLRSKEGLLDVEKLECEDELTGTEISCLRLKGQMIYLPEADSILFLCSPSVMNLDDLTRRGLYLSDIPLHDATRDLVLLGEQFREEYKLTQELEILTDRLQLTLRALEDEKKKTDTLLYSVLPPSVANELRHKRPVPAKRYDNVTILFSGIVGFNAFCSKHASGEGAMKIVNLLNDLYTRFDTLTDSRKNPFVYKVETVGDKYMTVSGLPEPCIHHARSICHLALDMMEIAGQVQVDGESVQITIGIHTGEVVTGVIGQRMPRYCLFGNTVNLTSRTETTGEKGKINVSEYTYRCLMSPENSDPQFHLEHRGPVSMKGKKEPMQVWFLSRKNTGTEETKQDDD
T1 sequence (Q02108 whole entry): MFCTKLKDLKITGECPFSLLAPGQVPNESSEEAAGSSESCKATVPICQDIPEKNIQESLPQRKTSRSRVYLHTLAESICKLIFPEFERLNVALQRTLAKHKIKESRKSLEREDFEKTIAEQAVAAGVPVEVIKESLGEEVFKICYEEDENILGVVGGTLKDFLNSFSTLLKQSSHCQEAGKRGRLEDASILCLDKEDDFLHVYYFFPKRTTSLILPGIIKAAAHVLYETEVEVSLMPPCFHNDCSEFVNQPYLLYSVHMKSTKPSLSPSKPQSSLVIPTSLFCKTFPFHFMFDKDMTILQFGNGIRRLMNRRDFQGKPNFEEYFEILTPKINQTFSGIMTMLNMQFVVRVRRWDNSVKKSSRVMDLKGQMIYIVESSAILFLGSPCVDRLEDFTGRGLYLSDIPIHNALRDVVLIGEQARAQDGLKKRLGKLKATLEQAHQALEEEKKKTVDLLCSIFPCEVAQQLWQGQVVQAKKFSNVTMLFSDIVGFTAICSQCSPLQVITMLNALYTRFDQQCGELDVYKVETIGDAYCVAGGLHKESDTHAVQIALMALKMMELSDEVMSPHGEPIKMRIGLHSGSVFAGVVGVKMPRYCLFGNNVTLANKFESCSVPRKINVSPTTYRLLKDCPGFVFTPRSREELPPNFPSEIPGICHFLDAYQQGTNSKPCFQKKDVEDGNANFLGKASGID

Structure (SMILES) | Emax [1, 3] | EC50 [1, 4] | EC50 [1, 5] | EC50 [2, 6] | EC50 [1] | Emax ([1]; HEK293, read-out: HEK assay Emax - unconstrained (%)) | EC50 [2]
CC(C)[C@H](Nc1nc(-c2cc(-c3ccon3)n(Cc3ccccc3F)n2)ncc1F)C(=O)O [Compound I-69, (S)-2-((5-fluoro-2-(1-(2-fluorobenzyl)-5-(isoxazol-3-yl)-1H-pyrazol-3-yl)pyrimidin-4-yl)amino)-3-methylbutanoic acid] | 80 to 100% | 100 to 500 nM | 500 to 1000 nM | 0.101 to 1 µM |  |  | 
O=C(O)[C@H](Cc1cc2ccccc2[nH]1)Nc1nc(-c2cc(-c3ccon3)n(Cc3ccccc3F)n2)ncc1F [Compound I-81] |  | > 10000 nM |  | > 1 µM |  |  | 
O=C(O)C1(Nc2nc(-c3cc(-c4ccon4)n(Cc4ccccc4F)n3)ncc2F)CC1 [Compound I-85] |  | > 10000 nM |  | > 1 µM |  |  | 
CC(C)C[C@H](Nc1nc(-c2cc(-c3ccon3)n(Cc3ccccc3F)n2)ncc1F)C(=O)O [Compound I-88] | 60 to 80% |  | 1000 to 5000 nM | 0.101 to 1 µM |  |  | 
O=C(O)[C@@H]1Cc2ccccc2N1c1nc(-c2cc(-c3ccon3)n(Cc3ccccc3F)n2)ncc1F [Compound I-90] | 40 to 60% |  | 5000 to 10000 nM | > 1 µM |  |  | 
CC(C)(C)OC(=O)N1CCN(c2nc(-c3cc(-c4ccon4)n(Cc4ccccc4F)n3)ncc2F)C(C(=O)O)C1 (centres unmarked) [Compound I-101] |  | 5000 to 10000 nM |  | 0.101 to 1 µM |  |  | 
O=C(O)c1cccn1-c1nc(-c2cc(-c3ccon3)n(Cc3ccccc3F)n2)ncc1F [Compound I-104] | 20 to 40% |  | 1000 to 5000 nM | > 1 µM |  |  | 
O=C(O)[C@@H](Cc1cc2ccccc2[nH]1)Nc1nc(-c2cc(-c3ccon3)n(Cc3ccccc3F)n2)ncc1F [Compound I-108] |  | 5000 to 10000 nM |  | 0.101 to 1 µM |  |  | 
Fc1ccccc1Cn1nc(-c2ncc(F)c(N3CCc4ccccc4C3)n2)cc1-c1ccon1 [Compound I-111] |  | > 10000 nM |  | < 0.1 µM |  |  | 
O=C(O)[C@@]1(Nc2nc(-c3cc(-c4ccon4)n(Cc4ccccc4F)n3)ncc2F)CC2CC[C@H]1C2 [Compound I-114] | 40 to 60% |  | 1000 to 5000 nM | > 1 µM |  |  | 
COc1ccc2c(c1)CCN(c1nc(-c3cc(-c4ccon4)n(Cc4ccccc4F)n3)ncc1F)C2C(=O)O (centres unmarked) [Compound I-126] |  | 500 to 1000 nM |  | < 0.1 µM |  |  | 
O=C(O)C1c2ccc(O)cc2CCN1c1nc(-c2cc(-c3ccon3)n(Cc3ccccc3F)n2)ncc1F (centres unmarked) [Compound I-127] |  | > 10000 nM |  | > 1 µM |  |  | 
O=C(O)C1(CNc2nc(-c3cc(-c4ccon4)n(Cc4ccccc4F)n3)ncc2F)CCCC1 [Compound I-129] |  | 100 to 500 nM |  | < 0.1 µM |  |  | 
O=C(O)C1CNCCN1c1nc(-c2cc(-c3ccon3)n(Cc3ccccc3F)n2)ncc1F (centres unmarked) [Compound I-133] |  | > 10000 nM |  | > 1 µM |  |  | 
COC(=O)N1CCN(c2nc(-c3cc(-c4ccon4)n(Cc4ccccc4F)n3)ncc2F)C(C(=O)O)C1 (centres unmarked) [Compound I-135] |  | > 10000 nM |  | > 1 µM |  |  | 
O=C(O)C1(Nc2nc(-c3cc(-c4ccon4)n(Cc4ccccc4F)n3)ncc2F)CCCC1 [Compound I-138] |  | 1000 to 5000 nM |  | > 1 µM |  |  | 
O=C(O)C1CCc2ccccc2N1c1nc(-c2cc(-c3ccon3)n(Cc3ccccc3F)n2)ncc1F (centres unmarked) [Compound I-140] | 80 to 100% |  | 1000 to 5000 nM | 0.101 to 1 µM |  |  | 
O=C(O)C1c2ccccc2CN1c1nc(-c2cc(-c3ccon3)n(Cc3ccccc3F)n2)ncc1F (centres unmarked) [Compound I-149] |  | > 10000 nM |  | > 1 µM |  |  | 
O=C(O)[C@H](Cc1ccc(O)cc1)Nc1nc(-c2cc(-c3ccon3)n(Cc3ccccc3F)n2)ncc1F [Compound I-159] |  | > 10000 nM |  | > 1 µM |  |  | 
O=C(O)C1c2[nH]cnc2CCN1c1nc(-c2cc(-c3ccon3)n(Cc3ccccc3F)n2)ncc1F (centres unmarked) [Compound I-163] |  | > 10000 nM |  | > 1 µM |  |  | 
O=C(O)C1(F)CCN(c2nc(-c3cc(-c4ccon4)n(Cc4ccccc4F)n3)ncc2F)CC1 [Compound I-188] |  | 1000 to 5000 nM |  | 0.101 to 1 µM |  |  | 
CN(Cc1nn[nH]n1)c1nc(-c2cc(-c3ccon3)n(Cc3ccccc3F)n2)ncc1F [Compound I-191] |  | > 10000 nM |  | < 0.1 µM |  |  | 

Structure (SMILES) | Emax [1, 3] | EC50 [1, 4] | EC50 [1, 5] | EC50 [2, 6] | EC50 [1] | Emax ([1]; HEK293, read-out: HEK assay Emax - unconstrained (%)) | EC50 [2]
CS(=O)(=O)C1CCN(c2nc(C3=NC(Cc4ccccc4F)C(c4ccon4)=C3)ncc2F)C1 (centres unmarked) [Compound I-192] | > 120% |  | 1 to 100 nM | < 0.1 µM |  |  | 
O=C(O)[C@@H]1CCCC[C@H]1Nc1nc(-c2cc(-c3ccon3)n(Cc3ccccc3F)n2)ncc1F [Compound I-198] | 40 to 60% |  | 1 to 100 nM | < 0.1 µM |  |  | 
CC(C)N(CC(=O)O)c1nc(-c2cc(-c3ccon3)n(Cc3ccccc3F)n2)ncc1F [Compound I-204] |  | > 10000 nM |  | 0.101 to 1 µM |  |  | 
O=C(O)C(F)(F)CNc1nc(-c2cc(-c3ccon3)n(Cc3ccccc3F)n2)ncc1F [Compound I-206] |  | > 10000 nM |  | < 0.1 µM |  |  | 
CCOC(=O)CN1CCCN1c1nc(-c2cc(-c3ccon3)n(Cc3ccccc3F)n2)ncc1F [Compound I-213] | > 120% |  | 500 to 1000 nM | < 0.1 µM |  |  | 
O=C(O)CCCNc1nc(-c2cc(-c3ccon3)n(Cc3ccccc3F)n2)ncc1F [Compound I-214] | > 120% |  | 100 to 500 nM | < 0.1 µM |  |  | 
CC(C)[C@H](C(=O)O)N(C)c1nc(-c2cc(-c3ccon3)n(Cc3ccccc3F)n2)ncc1F [Compound I-219] | 20 to 40% |  | > 10000 nM | < 0.1 µM |  |  | 
O=C(O)CC1CCN(c2nc(-c3cc(-c4ccon4)n(Cc4ccccc4F)n3)ncc2F)CC1 [Compound I-230] | 40 to 60% |  | > 10000 nM | < 0.1 µM |  |  | 
CC(C)[C@@H](C(=O)O)N(C)c1nc(-c2cc(-c3ncco3)n(Cc3ccccc3F)n2)ncc1F [Compound I-236] | 100 to 120% |  | 100 to 500 nM | < 0.1 µM |  |  | 
CN(c1nc(-c2cc(-c3ccon3)n(Cc3ccccc3F)n2)ncc1F)[C@H](C(=O)O)C1CC1 [Compound I-239] | 60 to 80% |  | 1 to 100 nM | < 0.1 µM |  |  | 
O=C(O)CC1(Nc2nc(-c3cc(-c4ccon4)n(Cc4ccccc4F)n3)ncc2F)CCOCC1 [Compound I-245] |  | 100 to 500 nM |  | 0.101 to 1 µM |  |  | 
CN(CC1(C(=O)O)CC1)c1nc(-c2cc(-c3ccon3)n(Cc3ccccc3F)n2)ncc1F [Compound I-250] | 80 to 100% |  | 1 to 100 nM | < 0.1 µM |  |  | 
CN(c1nc(-c2cc(-c3ccon3)n(Cc3ccccc3F)n2)ncc1F)[C@@H](Cc1ccccn1)C(=O)O [Compound I-257] |  | > 10000 nM |  | > 1 µM |  |  | 
CC(C)[C@H](Nc1nc(-c2cc(-c3ccon3)n(Cc3ccccc3F)n2)ncc1F)C(=O)NS(=O)(=O)C1CC1 [Compound I-258] | 100 to 120% |  | 1000 to 5000 nM | 0.101 to 1 µM |  |  | 
O=C(O)C1(O)CCN(c2nc(-c3cc(-c4ccon4)n(Cc4ccccc4F)n3)ncc2F)CC1 [Compound I-300] | 60 to 80% |  | 500 to 1000 nM | 0.101 to 1 µM |  |  | 
C[C@H]1CCCN(c2nc(-c3cc(-c4ccon4)n(Cc4cccc(F)c4F)n3)ncc2F)[C@H]1C(=O)O [Compound I-305] | 0 to 10% |  | > 10000 nM | < 0.1 µM |  |  | 
CN(c1nc(-c2cc(-c3ccon3)n(Cc3ccccc3F)n2)ncc1F)C12CC(C(=O)O)(C1)C2 [Compound I-307] | 100 to 120% |  | 1000 to 5000 nM | 0.101 to 1 µM |  |  | 
CN(CC(=O)NS(=O)(=O)c1ccccc1)c1nc(-c2cc(-c3ccon3)n(Cc3ccccc3F)n2)ncc1F [Compound I-361] | 0 to 10% |  | 100 to 500 nM | < 0.1 µM |  |  | 
Oc1noc2c1CCN(c1nc(-c3cc(-c4ccon4)n(Cc4ccccc4F)n3)ncc1F)C2 [Compound I-364] |  |  |  |  | 1 to 100 nM | 80 to 100% | < 0.1 µM
O=C(O)[C@@H]1[C@H]2CC[C@H](C2)N1c1nc(-c2cc(-c3ccon3)n(Cc3ccccc3F)n2)ncc1F [Compound I-365] | 80 to 100% |  | 1000 to 5000 nM | 0.101 to 1 µM |  |  | 
NS(=O)(=O)C1CCN(c2nc(-c3cc(-c4ccon4)n(Cc4ccccc4F)n3)ncc2F)CC1 [Compound I-366] | 40 to 60% |  | 1 to 100 nM | < 0.1 µM |  |  | 

— patent publication US10183021B2, “sGC stimulators” (Ironwood Pharmaceuticals, Inc., priority 2013, dated 2019)
